Measurements from patent publication US8389552B2, “(S)-6-(2-(4-(cyclobutylsulfonyl)-1H-imidazol-1-yl)-3-cyclopentylpropanamido)nicotinic acid useful as a glucokinase activator” (Pfizer Inc., priority 2009, dated 2013).

Biological target: T1, Full-length glucokinase (beta cell isoform) (Homo sapiens, UniProt P35557)
T1 construct: Full-length glucokinase (beta cell isoform) was His-tagged at N-terminus; His tag (N); made in house; host or cells: E. coli BL21(DE3), pBCGK vector
T1 sequence (P35557 1-465): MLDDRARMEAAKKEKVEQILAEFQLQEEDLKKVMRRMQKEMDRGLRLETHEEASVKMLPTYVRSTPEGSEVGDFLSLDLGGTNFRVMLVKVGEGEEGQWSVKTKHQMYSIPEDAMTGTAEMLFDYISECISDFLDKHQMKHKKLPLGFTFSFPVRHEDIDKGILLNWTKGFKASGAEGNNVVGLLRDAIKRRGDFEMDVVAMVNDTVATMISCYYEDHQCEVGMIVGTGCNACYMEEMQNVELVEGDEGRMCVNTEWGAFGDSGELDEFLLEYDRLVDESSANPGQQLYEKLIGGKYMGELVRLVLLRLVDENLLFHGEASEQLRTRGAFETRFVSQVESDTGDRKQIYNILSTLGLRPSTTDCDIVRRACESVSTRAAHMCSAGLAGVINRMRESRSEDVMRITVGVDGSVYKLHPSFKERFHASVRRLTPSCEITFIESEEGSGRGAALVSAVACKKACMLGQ
Test: Glucokinase activation assay (PK/LDH-coupled, NADH depletion at 340 nm)
Assay type: biochemical
Settings: 5 mM glucose, single value or range where N>1; for EC50: 2.5 mM ATP, pH 7.1, room temperature, read-out: EC50; for Emax: % max activation = (Va/Vo−1)×100 from fit, pH 7.1, read-out: Maximum Activation (%)
Protocol: Full-length glucokinase (beta cell isoform) was His-tagged at N-terminus and purified by a Ni column followed by size exclusion chromatography. A 320 mL column was packed in house using Superdex75 (Amersham Pharmacia, Carlsbad, Calif.) preparation grade resin. Glucose was obtained from Calbiochem (San Diego, Calif.) and other reagents were purchased from Sigma-Aldrich (St. Louis, Mo.).
All assays were performed in a Corning 384-well plate using Spectramax PLUS spectrophotometer (Molecular Devices, Sunnyvale, Calif.) at room temperature. The final assay volume was 40 ∥L. The buffer conditions used in this assay were as follows: 50 mM HEPES, 5 mM glucose, 2.5 mM ATP, 3.5 mM MgCl2, 0.7 mM NADH, 2 mM dithiothreitol, 1 unit/mL pyruvate kinase/lactate dehydrogenase (PK/LDH), 0.2 mM phosphoenolpyruvate, and 25 mM KCl. The buffer pH was 7.1. The test compound in dimethylsulfoxide solution was added to the buffer and mixed by a plate shaker for 7.5 minutes. The final concentration of dimethylsulfoxide introduced into the assay was 0.25%.
Glucokinase was added to the buffer mixture to initiate the reaction in the presence and absence of compound. The reaction was monitored by absorbance at 340 nm due to the depletion of NADH. The initial reaction velocity was measured by the slope of a linear time course of 0-300 seconds. The percentage of maximum activation was calculated by the following equation: % Maximum Activation=(Va/Vo−1)×100; wherein each of Va and Vo is defined as the initial reaction velocity in the presence and absence of the tested compound, respectively.
The glucokinase activities were measured as a function of compound concentrations.

SMILES: O=C(Nc1nc2cccnc2s1)[C@H](CC1CCOCC1)n1cnc(C(F)(F)F)c1 [Example 77, (S)-3-(tetrahydro-2H-pyran-4-yl)-N-(thiazolo[5,4-b]pyridin-2-yl)-2-(4-(trifluoromethyl)-1H-imidazol-1-yl)propanamide]
- EC50: 18 µM
- Emax: 139%

SMILES: CC(C)S(=O)(=O)c1cnn([C@@H](CC2CCCC2)C(=O)Nc2ccc3ccccc3n2)c1 [Example 17, (S)-3-cyclopentyl-2-(4-(isopropylsulfonyl)-1H-pyrazol-1-yl)-N-(quinolin-2-yl)propanamide]
- EC50: 8.2 µM
- Emax: 23%

SMILES: Cc1cnc(NC(=O)[C@H](CC2CCCC2)n2cc(S(C)(=O)=O)cn2)cn1 [Example 14, (S)-3-cyclopentyl-N-(5-methylpyrazin-2-yl)-2-(4-(methylsulfonyl)-1H-pyrazol-1-yl)propanamide]
- EC50: 11 µM
- Emax: 122%

SMILES: O=C(Nc1ccc(CP(=O)(O)O)cn1)[C@H](CC1CCCC1)n1cnc(C(F)(F)F)c1 [Example 60, (S)-(6-(3-cyclopentyl-2-(4-(trifluoromethyl)-1H-imidazol-1-yl)propanamido)pyridin-3-yl)methylphosphonic acid]
- EC50: 4.6 µM
- Emax: 112%

SMILES: COc1ccc2nc(NC(=O)[C@H](CC3CCOCC3)n3cnc(C(F)(F)F)c3)sc2n1 [Example 78, (S)—N-(5-methoxythiazolo[5,4-b]pyridin-2-yl)-3-(tetrahydro-2H-pyran-4-yl)-2-(4-(trifluoromethyl)-1H-imidazol-1-yl)propanamide]
- EC50: 4.2 to 4.4 µM
- Emax: 109 to 114%

SMILES: CC(C)S(=O)(=O)c1cnn([C@@H](CC2CCCC2)C(=O)Nc2ccncn2)c1 [Example 4, (S)-3-cyclopentyl-2-(4-(isopropylsulfonyl)-1H-pyrazol-1-yl)-N-(pyrimidin-4-yl)propanamide]
- EC50: 0.9 to 2.2 µM
- Emax: 57 to 90%

SMILES: NC(=O)c1ccc(NC(=O)[C@H](CC2CCCC2)n2cnc(C(F)(F)F)c2)nc1 [Example 52, 6-[(S)-3-cyclopentyl-2-(4-trifluoromethyl-1H-imidazol-1-yl)-propionylamino]-nicotinamide]
- EC50: 0.4 µM
- Emax: 110%

SMILES: Cc1ccc(NC(=O)[C@H](CC2CCCC2)n2cc(C(=O)N(C)C)cn2)nc1 [Example 72, (S)-1-(3-cyclopentyl-1-(5-methylpyridin-2-ylamino)-1-oxopropan-2-yl)-N,N-dimethyl-1H-pyrazole-4-carboxamide]
- EC50: > 100 µM

SMILES: CS(=O)(=O)c1cnn([C@@H](CC2CCCC2)C(=O)Nc2ccc(C(F)(F)F)cn2)c1 [Example 10, (S)-3-cyclopentyl-2-(4-(methylsulfonyl)-1H-pyrazol-1-yl)-N-(5-(trifluoromethyl)pyridin-2-yl)propanamide]
- EC50: 4.8 µM
- Emax: 56%

SMILES: CC(C)(O)C(=O)Nc1ccc(NC(=O)[C@H](CC2CCCC2)n2cnc(C(F)(F)F)c2)nc1 [Example 67, (S)-3-Cyclopentyl-N-[5-(2-hydroxy-2-methyl-propionylamino)-pyridin-2-yl]-2-(4-trifluoromethyl-imidazol-1-yl)-propionamide]
- EC50: 2.8 µM
- Emax: 104%

SMILES: CC(C)S(=O)(=O)c1cnn([C@@H](CC2CCCC2)C(=O)Nc2ccon2)c1 [Example 15, (S)-3-cyclopentyl-2-(4-(isopropylsulfonyl)-1H-pyrazol-1-yl)-N-(isoxazol-3-yl)propanamide]
- EC50: 60 µM
- Emax: 89%

SMILES: Cc1cnc(NC(=O)[C@H](CC2CCCC2)n2cnc(S(C)(=O)=O)n2)cn1 [Example 27, (S)-3-cyclopentyl-N-(5-methylpyrazin-2-yl)-2-(3-(methylsulfonyl)-1H-1,2,4-triazol-1-yl)propanamide]
- EC50: 22 µM
- Emax: 120%

SMILES: O=C(O)c1ccc(NC(=O)[C@H](CC2CCCC2)n2cnc(C(F)(F)F)n2)nc1 [Example 88, (S)-6-(3-cyclopentyl-2-(3-(trifluoromethyl)-1H-1,2,4-triazol-1-yl)propanamido)nicotinic acid]
- EC50: 0.7 µM
- Emax: 150%

SMILES: CS(=O)(=O)c1ccc(NC(=O)[C@H](CC2CCCC2)n2cnc(C(F)(F)F)c2)nc1 [Example 51, (S)-3-cyclopentyl-N-[5-(methylsulfonyl)pyridin-2-yl]-2-[4-(trifluoromethyl)-1H-imidazol-1-yl]propanamide]
- EC50: 6.7 to 8.8 µM
- Emax: 90 to 113%

SMILES: CC(C)(O)Cn1ccc(NC(=O)[C@H](CC2CCCC2)n2cnc(C(F)(F)F)c2)n1 [Example 56, (S)-3-cyclopentyl-N-(1-(2-hydroxy-2-methylpropyl)-1H-pyrazol-3-yl)-2-(4-(trifluoromethyl)-1H-imidazol-1-yl)propanamide]
- EC50: 5.2 µM
- Emax: 167%

SMILES: Cn1ccc(NC(=O)[C@H](CC2CCCC2)n2cnc(C(F)(F)F)c2)n1 [Example 43, (S)-3-cyclopentyl-N-(1-methyl-1H-pyrazol-3-yl)-2-(4-(trifluoromethyl)-1H-imidazol-1-yl)propanamide]
- EC50: 2.9 to 3.5 µM
- Emax: 147 to 166%

SMILES: CCS(=O)(=O)c1cn([C@@H](CC2CCCC2)C(=O)Nc2ccn(C)n2)cn1 [Example 31, (S)-3-cyclopentyl-2-(4-(ethylsulfonyl)-1H-imidazol-1-yl)-N-(1-methyl-1H-pyrazol-3-yl)propanamide]
- EC50: 11 µM
- Emax: 125%

SMILES: Cc1ccc(NC(=O)[C@H](CC2CCCC2)n2ncc(C(F)(F)F)c2C)nc1 [Example 97, (S)-3-cyclopentyl-2-(5-methyl-4-(trifluoromethyl)-1H-pyrazol-1-yl)-N-(5-methylpyridin-2-yl)propanamide]
- EC50: 28 µM
- Emax: 136%

SMILES: Cc1cnc(NC(=O)[C@H](CC2CCCC2)n2cnc(C(F)(F)F)c2)cn1 [Example 45, (S)-3-cyclopentyl-N-(5-methylpyrazin-2-yl)-2-(4-(trifluoromethyl)-1H-imidazol-1-yl)propanamide]
- EC50: 2 µM
- Emax: 161%

SMILES: Cc1cnc(NC(=O)[C@H](CC2CCCC2)n2ccc(C(F)(F)F)n2)cn1 [Example 70, (S)-3-cyclopentyl-N-(5-methylpyrazin-2-yl)-2-(3-(trifluoromethyl)-1H-pyrazol-1-yl)propanamide]
- EC50: 24 µM
- Emax: 124%

SMILES: CS(=O)(=O)c1cn([C@@H](CC2CCCC2)C(=O)Nc2ccc(C(=O)O)cn2)cn1 [Example 38, (S)-6-(3-cyclopentyl-2-(4-(methylsulfonyl)-1H-imidazol-1-yl)propanamido)nicotinic acid]
- EC50: 2.3 µM
- Emax: 160%

SMILES: CC(C)S(=O)(=O)c1cnn([C@@H](CC2CCCC2)C(=O)Nc2ccn(C)n2)c1 [Example 7, (S)-3-cyclopentyl-2-(4-(isopropylsulfonyl)-1H-pyrazol-1-yl)-N-(1-methyl-1H-pyrazol-3-yl)propanamide]
- EC50: 3.5 to 6 µM
- Emax: 39 to 40%

SMILES: O=C(Nc1cnccn1)[C@H](CC1CCCC1)n1cnc(C(F)(F)F)n1 [Example 84, (S)-3-cyclopentyl-N-(pyrazin-2-yl)-2-(3-(trifluoromethyl)-1H-1,2,4-triazol-1-yl)propanamide]
- EC50: 10 µM
- Emax: 171%

SMILES: Cc1cnc(NC(=O)[C@H](CC2CCCC2)n2cc(S(=O)(=O)C(C)C)cn2)cn1 [Example 6, (S)-3-cyclopentyl-2-(4-(isopropylsulfonyl)-1H-pyrazol-1-yl)-N-(5-methylpyrazin-2-yl)propanamide]
- EC50: 4.8 to 5.6 µM
- Emax: 70 to 76%

SMILES: CS(=O)(=O)c1cnn([C@@H](CC2CCCC2)C(=O)Nc2ccn(Cc3ccccc3)n2)c1 [Example 12, (S)—N-(1-benzyl-1H-pyrazol-3-yl)-3-cyclopentyl-2-(4-(methylsulfonyl)-1H-pyrazol-1-yl)propanamide]
- EC50: > 100 µM

SMILES: Cc1ccc(NC(=O)[C@H](CC2CCCC2)n2cnc(C(F)(F)F)n2)nc1 [Example 85, (S)-3-cyclopentyl-N-(5-methylpyridin-2-yl)-2-(3-(trifluoromethyl)-1H-1,2,4-triazol-1-yl)propanamide]
- EC50: 0.8 to 1 µM
- Emax: 125 to 147%

SMILES: CCn1ccc(NC(=O)[C@H](CC2CCCC2)n2cc(S(=O)(=O)C(C)C)cn2)n1 [Example 18, (S)-3-cyclopentyl-N-(1-ethyl-1H-pyrazol-3-yl)-2-(4-(isopropylsulfonyl)-1H-pyrazol-1-yl)propanamide]
- EC50: 15.7 µM
- Emax: 24%
